# Data taken from patent US11883525B2, “Bioerodible polyester polymer axitinib ocular implants and related methods of use” (Dose Medical Corporation, priority 2019, dated 2024).
# Tested on: persistent retinal vascular leakage
# Assay: DL-AAA model of persistent retinal vascular leakage, fluorescein angiography
# Type: in vivo, DB rabbits
# Conditions: 2-mg injection
substance,measurement,value
"Eylea® (aflibercept): commercial aflibercept product, macromolecular ligand for VEGF, used to validate the model",duration of effect on leakage,approximately two
